In patent US20170088532A1, “INHIBITORS OF LPXC” (The Regents of the University of California, priority 2013, published 2017):
Read-outs that look alike come from different tables or passages of the source.

Target: T1, E. Coli LpxC (Escherichia coli, UniProt P0A725)
T1 sequence (P0A725 1-305): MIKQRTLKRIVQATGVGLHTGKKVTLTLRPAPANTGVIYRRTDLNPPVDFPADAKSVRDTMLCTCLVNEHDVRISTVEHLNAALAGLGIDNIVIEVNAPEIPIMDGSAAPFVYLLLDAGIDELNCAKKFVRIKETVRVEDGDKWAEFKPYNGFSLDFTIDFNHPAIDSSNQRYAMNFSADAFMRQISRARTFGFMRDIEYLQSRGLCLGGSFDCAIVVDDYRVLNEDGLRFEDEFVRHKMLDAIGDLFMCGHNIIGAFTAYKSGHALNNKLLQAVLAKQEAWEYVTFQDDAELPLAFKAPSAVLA
Assay: Inhibition of LpxC from E. coli
Assay type: biochemical
Details: for inhibition at 50 µM: compound at 50 μM
Text: Methods for assessing inhibition of LpxC are known in the art.

[1] = Table 1, read-out: % Inhibition E. Coli LpxC at 50 μM
[2] = Table 2, values in parentheses, read-out: (% Inhibition of E. Coli LpxC at 50 μM)

SMILES: O=c1cc(CO)oc(CNc2ccc(-c3ccccc3)cc2)c1O [Compound 010]
- inhibition at 50 µM [1]: 39%
- inhibition at 50 µM [2]: 39%

SMILES: O=c1ccoc(CNc2ccc(-c3ccccc3)cc2)c1O [Compound 013]
- inhibition at 50 µM [1]: 67%
- inhibition at 50 µM [2]: 67%

SMILES: Cc1cc(=O)c(O)c(CNc2ccc(-c3ccccc3)cc2)o1 [Compound 014]
- inhibition at 50 µM [1]: 23%
- inhibition at 50 µM [2]: 23%

SMILES: COc1ccc(-c2ccc(NCc3oc(CO)cc(=O)c3O)cc2)cc1 [Compound 018, 3-hydroxy-6-(hydroxymethyl)-2-(((4′-methoxy-[1,1′-biphenyl]-4-yl)amino)methyl)-4H-pyran-4-one]
- IC50 (E. Coli LpxC, Table 2, values without parentheses): 12.7 µM
- inhibition at 50 µM [1]: 81%

SMILES: COc1ccc(-c2ccc(NCc3occc(=O)c3O)cc2)cc1 [Compound 027]
- inhibition at 50 µM [1]: 13%
- inhibition at 50 µM [2]: 13%

SMILES: COC(=O)c1cc(=O)c(O)c(CNc2ccc(-c3ccc(OC)cc3)cc2)o1 [Compound 035]
- inhibition at 50 µM [1]: 29%
- inhibition at 50 µM [2]: 29%
